Assay results taken from ChEMBL document CHEMBL1201862, “PubChem BioAssay data set” (2004).
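Each compound was tested at five concentrations against cells in 96-well plates for 48 hours. GI50 is the concentration that inhibits growth by half.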 The source made the active and inactive calls. Cut-off read from the data, not from the text of the source: active = GI50 up to about 1.1 µM and inactive = higher.

Legend:
Assay in all cases: NCI anticancer screen, dose series, 48 h
CAKI-1 = test system: CAKI-1
NCI-H522 = test system: NCI-H522
SR = test system: SR
A498 = test system: A498
IGROV-1 = test system: IGROV-1
RXF 393 = test system: RXF 393
HL-60 = test system: HL-60
DMS-273 = test system: DMS-273
SK-OV-3 = test system: SK-OV-3
OVCAR-5 = test system: OVCAR-5
HT-29 = test system: HT-29
SF-539 = test system: SF-539
OVCAR-8 = test system: OVCAR-8
SN12C = test system: SN12C
A549 = test system: A549
KM12 = test system: KM12
HCC 2998 = test system: HCC 2998
KM-20L2 = test system: KM-20L2
U-251 = test system: U-251
HOP-92 = test system: HOP-92
SK-MEL-28 = test system: SK-MEL-28
UACC-62 = test system: UACC-62
UO-31 = test system: UO-31
K562 = test system: K562
ACHN = test system: ACHN
CCRF-CEM = test system: CCRF-CEM
DLD-1 = test system: DLD-1
SNB-78 = test system: SNB-78
SK-MEL-5 = test system: SK-MEL-5
NCI-H23 = test system: NCI-H23
786-0 = test system: 786-0
TK-10 = test system: TK-10
HCT-15 = test system: HCT-15
M14 = test system: M14
EKVX = test system: EKVX
OVCAR-4 = test system: OVCAR-4
OVCAR-3 = test system: OVCAR-3
NCI-H460 = test system: NCI-H460
SF-268 = test system: SF-268
HCT-116 = test system: HCT-116
UACC-257 = test system: UACC-257
SNB-19 = test system: SNB-19
SF-295 = test system: SF-295
HOP-62 = test system: HOP-62
HOP-18 = test system: HOP-18
MOLT-4 = test system: MOLT-4
M19-MEL = test system: M19-MEL
SNB-75 = test system: SNB-75
RPMI-8226 = test system: RPMI-8226
SW-620 = test system: SW-620
DMS-114 = test system: DMS-114
NCI-H226 = test system: NCI-H226
COLO 205 = test system: COLO 205
SK-MEL-2 = test system: SK-MEL-2
LXFL 529 = test system: LXFL 529
LOX IMVI = test system: LOX IMVI
Malme-3M = test system: Malme-3M
XF498 = test system: XF498

`CN(C)CCN1CCc2c([nH]c3ccccc23)C1c1cccnc1` (stereo not given) was tested, and the GI50 (CAKI-1) was > 100 µM (inactive), the GI50 (NCI-H522) was > 100 µM (inactive) and the GI50 (SR) was > 100 µM (inactive). The GI50 (A498) was > 100 µM (inactive), the GI50 (IGROV-1) was > 100 µM (inactive) and the GI50 (RXF 393) was 20.2 µM (inactive). For the same compound, the GI50 (HL-60) was > 100 µM (inactive), the GI50 (DMS-273) was > 100 µM (inactive) and the GI50 (SK-OV-3) was > 100 µM (inactive). For the same compound, the GI50 (OVCAR-5) was > 100 µM (inactive), the GI50 (HT-29) was > 100 µM (inactive) and the GI50 (SF-539) was > 100 µM (inactive). The GI50 (OVCAR-8) was > 100 µM (inactive), the GI50 (SN12C) was > 100 µM (inactive) and the GI50 (A549) was > 100 µM (inactive). For the same compound, the GI50 (KM12) was > 100 µM (inactive), the GI50 (HCC 2998) was > 100 µM (inactive) and the GI50 (KM-20L2) was > 100 µM (inactive). For the same compound, the GI50 (U-251) was > 100 µM (inactive), the GI50 (HOP-92) was 63.7 µM (inactive) and the GI50 (SK-MEL-28) was > 100 µM (inactive). The GI50 (UACC-62) was > 100 µM (inactive), the GI50 (UO-31) was 40.9 µM (inactive) and the GI50 (K562) was > 100 µM (inactive). The GI50 (ACHN) was 23 µM (inactive), the GI50 (CCRF-CEM) was > 100 µM (inactive) and the GI50 (DLD-1) was > 100 µM (inactive). The GI50 (SNB-78) was > 100 µM (inactive), the GI50 (SK-MEL-5) was > 100 µM (inactive) and the GI50 (NCI-H23) was > 100 µM (inactive). For the same compound, the GI50 (786-0) was > 100 µM (inactive), the GI50 (TK-10) was > 100 µM (inactive) and the GI50 (HCT-15) was over 100 µM. For the same compound, the GI50 (M14) was > 100 µM (inactive), the GI50 (EKVX) was > 100 µM (inactive) and the GI50 (OVCAR-4) was > 100 µM (inactive). For the same compound, the GI50 (OVCAR-3) was > 100 µM (inactive), the GI50 (NCI-H460) was > 100 µM (inactive) and the GI50 (SF-268) was > 100 µM (inactive). For the same compound, the GI50 (HCT-116) was > 100 µM (inactive), the GI50 (UACC-257) was > 100 µM (inactive) and the GI50 (SNB-19) was > 100 µM (inactive). For the same compound, the GI50 (SF-295) was > 100 µM (inactive), the GI50 (HOP-62) was > 100 µM (inactive) and the GI50 (HOP-18) was > 100 µM (inactive). The GI50 (MOLT-4) was > 100 µM (inactive), the GI50 (M19-MEL) was > 100 µM (inactive) and the GI50 (SNB-75) was 61.1 µM (inactive). For the same compound, the GI50 (RPMI-8226) was > 100 µM (inactive), the GI50 (SW-620) was > 100 µM (inactive) and the GI50 (DMS-114) was > 100 µM (inactive).

For `CC1CCC2[C@@H](C)COC3O[C@]4(C)CCC1C32OO4` (stereo not given in full), the GI50 (CAKI-1) was > 100 µM (inactive), the GI50 (NCI-H522) was > 100 µM (inactive) and the GI50 (A498) was > 100 µM (inactive). For the same compound, the GI50 (IGROV-1) was > 100 µM (inactive), the GI50 (RXF 393) was > 100 µM (inactive) and the GI50 (DMS-273) was > 100 µM (inactive). For the same compound, the GI50 (SK-OV-3) was > 100 µM (inactive), the GI50 (OVCAR-5) was > 100 µM (inactive) and the GI50 (HT-29) was > 100 µM (inactive). For the same compound, the GI50 (NCI-H226) was > 100 µM (inactive), the GI50 (SF-539) was > 100 µM (inactive) and the GI50 (OVCAR-8) was > 100 µM (inactive). For the same compound, the GI50 (SN12C) was > 100 µM (inactive), the GI50 (A549) was > 100 µM (inactive) and the GI50 (KM12) was > 100 µM (inactive). For the same compound, the GI50 (HCC 2998) was > 100 µM (inactive), the GI50 (KM-20L2) was > 100 µM (inactive) and the GI50 (U-251) was > 100 µM (inactive). The GI50 (HOP-92) was > 100 µM (inactive), the GI50 (SK-MEL-28) was > 100 µM (inactive) and the GI50 (UACC-62) was > 100 µM (inactive). The GI50 (UO-31) was 54.1 µM (inactive), the GI50 (COLO 205) was > 100 µM (inactive) and the GI50 (K562) was 38.9 µM (inactive). The GI50 (ACHN) was > 100 µM (inactive), the GI50 (CCRF-CEM) was 5.15 µM (inactive) and the GI50 (DLD-1) was > 100 µM (inactive). For the same compound, the GI50 (SNB-78) was > 100 µM (inactive), the GI50 (SK-MEL-5) was > 100 µM (inactive) and the GI50 (NCI-H23) was > 100 µM (inactive). For the same compound, the GI50 (786-0) was > 100 µM (inactive), the GI50 (TK-10) was > 100 µM (inactive) and the GI50 (HCT-15) was over 100 µM. For the same compound, the GI50 (M14) was > 100 µM (inactive), the GI50 (EKVX) was > 100 µM (inactive) and the GI50 (SK-MEL-2) was > 100 µM (inactive). The GI50 (OVCAR-4) was > 100 µM (inactive), the GI50 (OVCAR-3) was > 100 µM (inactive) and the GI50 (NCI-H460) was > 100 µM (inactive). For the same compound, the GI50 (SF-268) was > 100 µM (inactive), the GI50 (HCT-116) was > 100 µM (inactive) and the GI50 (UACC-257) was > 100 µM (inactive). The GI50 (SNB-19) was > 100 µM (inactive), the GI50 (SF-295) was > 100 µM (inactive) and the GI50 (HOP-62) was > 100 µM (inactive). The GI50 (LXFL 529) was 77.1 µM (inactive), the GI50 (HOP-18) was > 100 µM (inactive) and the GI50 (SNB-75) was 91.6 µM (inactive). For the same compound, the GI50 (SW-620) was > 100 µM (inactive), the GI50 (DMS-114) was > 100 µM (inactive) and the GI50 (LOX IMVI) was > 100 µM (inactive). The GI50 (Malme-3M) was > 100 µM (inactive).

`CCOC1=C2C(=O)OC(=O)C2C2CCCCC2=C1` (stereo not given) was tested, and the GI50 (CAKI-1) was > 100 µM (inactive), the GI50 (NCI-H522) was > 100 µM (inactive) and the GI50 (A498) was > 10 µM (inactive). For the same compound, the GI50 (IGROV-1) was > 100 µM (inactive), the GI50 (RXF 393) was > 100 µM (inactive) and the GI50 (HL-60) was > 100 µM (inactive). The GI50 (DMS-273) was > 100 µM (inactive), the GI50 (SK-OV-3) was > 100 µM (inactive) and the GI50 (HT-29) was > 100 µM (inactive). For the same compound, the GI50 (SF-539) was > 100 µM (inactive), the GI50 (OVCAR-8) was > 100 µM (inactive) and the GI50 (SN12C) was > 100 µM (inactive). The GI50 (A549) was > 100 µM (inactive), the GI50 (KM12) was > 100 µM (inactive) and the GI50 (HCC 2998) was > 100 µM (inactive). For the same compound, the GI50 (XF498) was > 100 µM (inactive), the GI50 (U-251) was > 100 µM (inactive) and the GI50 (HOP-92) was > 100 µM (inactive). The GI50 (SK-MEL-28) was > 100 µM (inactive), the GI50 (UACC-62) was > 100 µM (inactive) and the GI50 (UO-31) was > 100 µM (inactive). The GI50 (COLO 205) was > 100 µM (inactive), the GI50 (K562) was > 100 µM (inactive) and the GI50 (CCRF-CEM) was > 100 µM (inactive). The GI50 (DLD-1) was > 100 µM (inactive), the GI50 (SNB-78) was > 100 µM (inactive) and the GI50 (SK-MEL-5) was > 100 µM (inactive). For the same compound, the GI50 (NCI-H23) was > 100 µM (inactive), the GI50 (786-0) was > 100 µM (inactive) and the GI50 (TK-10) was > 100 µM (inactive). The GI50 (HCT-15) was over 100 µM, the GI50 (M14) was > 100 µM (inactive) and the GI50 (EKVX) was > 100 µM (inactive). The GI50 (SK-MEL-2) was > 100 µM (inactive), the GI50 (OVCAR-4) was > 100 µM (inactive) and the GI50 (OVCAR-3) was > 100 µM (inactive). The GI50 (NCI-H460) was > 100 µM (inactive), the GI50 (SF-268) was > 100 µM (inactive) and the GI50 (HCT-116) was > 100 µM (inactive). The GI50 (UACC-257) was > 100 µM (inactive), the GI50 (SNB-19) was > 100 µM (inactive) and the GI50 (SF-295) was > 100 µM (inactive). For the same compound, the GI50 (HOP-62) was > 100 µM (inactive), the GI50 (LXFL 529) was > 100 µM (inactive) and the GI50 (MOLT-4) was > 100 µM (inactive). The GI50 (M19-MEL) was > 100 µM (inactive), the GI50 (SNB-75) was > 100 µM (inactive) and the GI50 (RPMI-8226) was > 100 µM (inactive). The GI50 (SW-620) was > 100 µM (inactive), the GI50 (DMS-114) was > 100 µM (inactive) and the GI50 (LOX IMVI) was > 100 µM (inactive). For the same compound, the GI50 (Malme-3M) was > 100 µM (inactive).
